Here are results for 5 compounds from patent publication US8637670B2, “Imidazo [4,5-C]quinoline derivatives and their use in the treatment of tumors and/or inflammation” (Piramal Enterprises Limited, priority 2009, dated 2014).

One assay has as its system OVCAR 3. Briefly: Cytotoxicity, propidium iodide assay, OVCAR 3. The format is cell-based. The conditions noted are these: Homo sapiens; Ovarian, OVCAR 3, 48 hours treatment; read-out: IC50, C3b (OVCAR 3). In short, it runs like this: (§1)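 Cells seeded at 3000/well, grown 18–24 h at 37 °C/5% CO2, then exposed 48 h to compound dilutions from DMSO stock. Washed cells stained with 7 μg/ml propidium iodide, frozen at −70 °C ≥24 h, thawed and fluorescence read. Viability relative to untreated wells (100%); IC50 from plotted percentages.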

The target in the next assay is T1, PI3Kα kinase (Homo sapiens, UniProt P42336).
T1 construct: purchased Millipore, USA
As to the kind of experiment: PI3Kα assay (32P incorporation into phosphatidylinositol, TLC densitometry). The conditions noted are these: for inhibition at 0.1 µM: At 100 nM; for inhibition at 1 µM: At 1000 nM. The format is biochemical. In short, it runs like this: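 Human PI3Kα (20 ng) with 12.5 μg phosphatidylinositol, 10 μM ATP plus [γ-32P]ATP in 10 mM Hepes pH 7.5, 50 mM MgCl2; 20 min at 30° C. Lipids extracted in MeOH/chloroform, resolved by silica TLC, and 32P-labelled PI quantified by autoradiography densitometry.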

The next assay has as its system A549. As to the kind of experiment: Cytotoxicity, propidium iodide assay, A549. The format is cell-based. The conditions noted are these: Homo sapiens; Lung, A549, 48 hours treatment; read-out: IC50, C1a (A549). The gist of the method:
as §1

The test system of another assay is PI3K α. Briefly: PI3K activity assay, cell-based ELISA of AKT (Ser 473) phosphorylation. The following applies: Homo sapiens, Ovarian cell line A2780, 20% FCS stimulation. The method, then:
The assay was designed as in the reference, Biochemical Journal, 2000, 350, 717-722, the disclosure of which is incorporated by reference for the teaching of the assay.
Seed cells (Ovarian cell line A2780, ATCC) were plated in a 96 well microtitre plate at a density of 50,000 cells/cm^2 in appropriate complete cell culture medium. The cells were allowed to adhere for 18-24 hours. The cells were allowed to starve for 24 hours. The cells were pretreated (in triplicates) with the compounds of Example 1-40 (stock solution was prepared in DMSO and subsequent dilutions were made in kinase buffer) at a concentration of 10 μM for one hour. Then the cells were stimulated with 20% FCS for 30 minutes. A typical assay would consist of a set of unstimulated cells, a set of stimulated cells and a set of cells treated with compounds of Example 1-40 and a set of cells treated with the stimulator. The medium was discarded. The cells were fixed with 100 μL of 3.7% formaldehyde for 15 minutes. The formaldehyde was discarded by inverting the plate and tapping it on a thick tissue paper layer to remove traces. The cells were washed and permeabilized with 200 μL PBS+Triton-X 100 solution (hereafter referred to as PBS-Triton, containing 0.1% triton-X 100 in 1×PBS) three times, incubating the cells each time for 5 minutes. 100 μL blocking solution (10% FCS in PBS-Triton) was added and incubated for 1 hour at 25° C. The blocking solution was discarded and cells were incubated with the primary antibody in PBS-Triton at a dilution of 1:500 for 1 hour at RT (25° C.). [The primary antibody is Phospho-AKT (Ser 473); Cell Signaling; USA, Cat. No. 9271]. The primary antibody solution was discarded and the cells were washed 3 times with PBS-Triton solution and incubated with the HRP-conjugated secondary antibody in PBS-Triton at a dilution of 1:500 for 1 hour at RT (25° C.). The cells were washed 3 times with PBS-Triton followed by two washes with PBS (to remove traces of triton-X 100). The OPD (o-phenylene diamine dihydrochloride) substrate was prepared for detection of the signal by dissolving one tablet set (two tablets) of SigmaFast OPD (Sigma, USA, Cat No. P9187) in 20 mL distilled water. It should be kept protected from light. 100 μL OPD solutions was added to the wells and the plate was incubated in the dark for 3-5 minutes (depending upon the development of the color). The reaction was stopped by adding 50 μL 2 NH2SO4. The absorbance was measured at 490 nm. The values were expressed in the treated samples, in terms of percentage or fold decrease in AKT phosphorylation with respect to the induced sample. PI-103 (Calbiochem, USA) was used as a standard.
Background: An ELISA detects its analyte on a solid surface through an enzyme-linked reagent.

The subject of the next assay is AsPC 1. As to the kind of experiment: Cytotoxicity, propidium iodide assay, AsPC 1. The format is cell-based. The following applies: Homo sapiens, ASPC1; Pancreatic, AsPC 1, 48 hours treatment; read-out: IC50, C5b (AsPC 1). The protocol: (§2) The assay was designed as in the reference, Anticancer Drugs, 2002, 13, 1-8, the disclosure of which is incorporated by reference for the teaching of the assay.
(§3) Cells from cell lines as mentioned in the table given below were seeded at a density of 3000 cells/well in a white opaque 96-well plate. Following incubation at 37° C./5% CO2 for a period of 18-24 hours, the cells were treated with various concentrations (stock solution was prepared in DMSO and subsequent dilutions were made in media as per ATCC guidelines) of the compounds of Example 1-40 was for a period of 48 hours. At the end of treatment, the spent culture medium was discarded, the cells were washed with 1×PBS and 200 μl of 7 μg/ml propidium iodide was added to each well. The plates were frozen at −70° C. for at least 24 hours. For analysis, the plates were brought to RT, allowed to thaw and were read in PoleStar fluorimeter with the fluorescence setting. The percentage of viable cells in the non-treated set of wells was considered to be 100 and the percentage viability following treatment was calculated accordingly. IC50 values were calculated from graphs plotted using these percentages. Table 4 depicts the IC50 values of compounds of Example 1-40 in individual cell lines.
(§4) The abbreviations for the Cell Lines as used in Table 4 are: […]

Another assay has as its system PANC 1. As to the kind of experiment: Cytotoxicity, propidium iodide assay, PANC 1. The format is cell-based. The conditions noted are these: Homo sapiens; Pancreatic, PANC 1, 48 hours treatment; read-out: IC50, C5a (PANC 1). The protocol:
as §2, §3, §4

The subject of the next assay is PC3. Briefly: Cytotoxicity, propidium iodide assay, PC3. The format is cell-based. The following applies: Homo sapiens, PC-3; Prostate, PC3, 48 hours treatment; read-out: IC50, C2a (PC3). In short, it runs like this: as §1

The structures appear in SMILES notation. Where only a bound is given, the exact number is not on record here.

T1 sequence (P42336 whole entry): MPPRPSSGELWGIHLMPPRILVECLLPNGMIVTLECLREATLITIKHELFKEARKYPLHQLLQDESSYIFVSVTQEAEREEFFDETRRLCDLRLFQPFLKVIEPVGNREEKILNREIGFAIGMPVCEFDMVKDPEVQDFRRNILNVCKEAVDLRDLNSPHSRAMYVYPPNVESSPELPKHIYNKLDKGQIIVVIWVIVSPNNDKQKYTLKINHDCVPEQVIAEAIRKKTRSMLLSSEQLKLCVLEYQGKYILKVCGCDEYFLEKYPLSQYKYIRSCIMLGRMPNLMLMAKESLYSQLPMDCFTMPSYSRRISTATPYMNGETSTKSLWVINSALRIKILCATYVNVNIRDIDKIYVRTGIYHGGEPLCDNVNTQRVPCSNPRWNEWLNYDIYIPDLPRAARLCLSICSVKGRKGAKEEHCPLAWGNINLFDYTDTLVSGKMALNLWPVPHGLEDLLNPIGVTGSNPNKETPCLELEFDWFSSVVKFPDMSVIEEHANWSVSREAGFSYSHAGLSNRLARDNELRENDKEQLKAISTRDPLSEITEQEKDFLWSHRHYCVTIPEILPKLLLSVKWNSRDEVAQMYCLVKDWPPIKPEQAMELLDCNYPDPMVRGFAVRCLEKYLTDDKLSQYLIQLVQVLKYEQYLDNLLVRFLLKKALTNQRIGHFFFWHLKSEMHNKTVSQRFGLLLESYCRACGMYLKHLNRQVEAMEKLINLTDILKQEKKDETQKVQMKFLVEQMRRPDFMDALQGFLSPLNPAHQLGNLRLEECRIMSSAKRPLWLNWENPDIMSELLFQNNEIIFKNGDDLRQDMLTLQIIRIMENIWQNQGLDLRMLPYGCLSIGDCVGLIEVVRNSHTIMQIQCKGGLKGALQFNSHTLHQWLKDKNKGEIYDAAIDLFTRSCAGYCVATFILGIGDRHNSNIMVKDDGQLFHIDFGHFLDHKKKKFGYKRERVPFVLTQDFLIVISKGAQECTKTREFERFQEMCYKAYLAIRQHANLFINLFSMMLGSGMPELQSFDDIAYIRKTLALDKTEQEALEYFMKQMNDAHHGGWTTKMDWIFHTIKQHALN
T1 sequence (P27986 whole entry partner): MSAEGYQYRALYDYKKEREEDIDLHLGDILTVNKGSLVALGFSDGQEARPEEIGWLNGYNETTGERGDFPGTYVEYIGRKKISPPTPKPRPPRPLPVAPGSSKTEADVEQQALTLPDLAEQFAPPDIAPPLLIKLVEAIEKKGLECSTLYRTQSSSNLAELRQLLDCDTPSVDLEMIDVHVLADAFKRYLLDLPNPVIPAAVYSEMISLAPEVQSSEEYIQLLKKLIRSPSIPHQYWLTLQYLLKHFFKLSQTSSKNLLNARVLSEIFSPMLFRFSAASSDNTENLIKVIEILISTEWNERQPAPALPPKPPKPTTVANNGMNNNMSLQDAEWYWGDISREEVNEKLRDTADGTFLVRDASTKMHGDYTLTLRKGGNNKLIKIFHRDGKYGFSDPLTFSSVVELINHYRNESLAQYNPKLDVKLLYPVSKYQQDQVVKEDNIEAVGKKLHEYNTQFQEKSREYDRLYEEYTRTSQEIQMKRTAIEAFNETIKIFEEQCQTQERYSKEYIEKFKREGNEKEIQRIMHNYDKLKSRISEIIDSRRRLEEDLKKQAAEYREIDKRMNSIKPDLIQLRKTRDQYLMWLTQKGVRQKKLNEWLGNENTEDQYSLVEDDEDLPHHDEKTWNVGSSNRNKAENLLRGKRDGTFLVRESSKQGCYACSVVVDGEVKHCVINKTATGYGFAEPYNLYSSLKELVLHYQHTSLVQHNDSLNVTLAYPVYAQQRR

As a reminder, the IC50 is the point on the concentration scale where inhibition reaches its midpoint. As usually defined, the inhibition is the relative decrease from the control value, in per cent. High values mean a strong effect, low ones a weak effect. In the case of `CC(C)(C#N)c1ccc(-n2c(=O)n(C(=O)c3ccccc3)c3cnc4ccc(Br)cc4c32)cc1` [Example 30, 2-(4-(3-Benzoyl-8-bromo-2-oxo-2,3-dihydro-1H-imidazo[4,5-c]quinolin-1-yl)phenyl)-2-methylpropanenitrile], the IC50 in the assay with OVCAR 3 is at most 1000 nM; with A549, 1000 to 3000 nM; in the assay on AsPC 1 it was 1000 to 3000 nM; with PANC 1, 1000 to 3000 nM; in the assay on PC3 it was 1000 to 3000 nM. Also, the inhibition at 0.1 µM at PI3Kα kinase was over 50%. In addition, the inhibition at 10 µM in the assay on PI3K α lay within 10 to 50%.

`C/C=C/C(=O)n1c(=O)n(-c2ccc(C(C)(C)C#N)cc2)c2c3cc(Br)ccc3ncc21` [Example 27, (E)-2-(4-(8-Bromo-3-but-2-enoyl-2-oxo-2,3-dihydro-1H-imidazo[4,5-c]quinolin-1-yl)phenyl)-2-methylpropanenitrile]: the IC50 in the assay on OVCAR 3, in the assay with A549, with AsPC 1, in the assay on PANC 1 and in the assay with PC3 was at most 1000 nM in each case. This compound also showed an inhibition at 1 µM on PI3Kα kinase of 10 to 50%. The inhibition at 10 µM in the assay with PI3K α was over 50%.

Turning to `C/C=C/C(=O)n1c(=O)n(-c2ccc(C(C)(C)C#N)cc2)c2c3cc(Cl)ccc3ncc21` [Example 38, (E)-2-(4-(3-But-2-enoyl-8-chloro-2-oxo-2,3-dihydro-1H-imidazo[4,5-c]quinolin-1-yl)phenyl)-2-methylpropanenitrile], the IC50 with OVCAR 3, with A549, in the assay with AsPC 1, in the assay on PANC 1 and with PC3 was at most 1000 nM each time. At PI3Kα kinase, this compound displayed an inhibition at 1 µM of 10 to 50%. Besides, the inhibition at 10 µM with PI3K α is over 50%.

In the case of `Cc1cccc(S(=O)(=O)n2c(=O)n(-c3ccc(C(C)(C)C#N)cc3)c3c4cc(Br)ccc4ncc32)c1` [Example 3, 2-(4-(8-Bromo-2-oxo-3-(m-tolylsulfonyl)-2,3-dihydro-1H-imidazo[4,5-c]quinolin-1-yl)phenyl)-2-methylpropanenitrile], the IC50 in the assay on OVCAR 3 is 1000 to 3000 nM; with A549 it was 1000 to 3000 nM; in the assay on AsPC 1, 1000 to 3000 nM; with PANC 1 it was 1000 to 3000 nM; with PC3, at most 1000 nM. The same compound had an inhibition at 0.1 µM at PI3Kα kinase of 10 to 50%. For the same compound, the inhibition at 10 µM in the assay with PI3K α lay in the range of 10 to 50%.

As for `CC(C)(C#N)c1ccc(-n2c(=O)n(C(=O)c3ccccc3)c3cnc4ccc(Cl)cc4c32)cc1` [Example 37, 2-(4-(3-Benzoyl-8-chloro-2-oxo-2,3-dihydro-1H-imidazo[4,5-c]quinolin-1-yl)phenyl)-2-methylpropanenitrile], the IC50 in the assay with OVCAR 3, in the assay with A549 and with PC3 was 1000 to 3000 nM throughout. For the same compound, the inhibition at 0.1 µM at PI3Kα kinase was in the range of 10 to 50%.
